# What was measured:
# [1] = system: VSV-infected RAW264.7 cells; assay type: cell-based
# VSV = assay type: cell-based, vesicular stomatitis virus (VSV)
substance,measurement,setting,value
"EPRS: glutamyl-prolyl-tRNA synthetase protein, 1512 aa, SEQ ID NO: 63; expressed from plasmid or purified",IFN-β production following infection with VSV,[1],more production of IFN-β and IL-6
same,IL-6 production following infection with VSV,[1],more production of IFN-β and IL-6
same,viral replication following infection with VSV,VSV,significantly less viral replication
